{"source": "patent US5045543A", "about": "“5-amino or substituted amino 1,2,3-triazoles useful as antimetastatic agents” (Merck & Co., Inc., priority 1989, dated 1991)", "key": {"macrophages": {"system": "macrophages", "assay": "LTC4 and PGE2 production and lysosomal enzyme release in macrophages", "type": "cell-based", "settings": "1 μg/ml"}, "[1]": {"system": "nucleotide pools in mammalian cells", "assay": "Inhibition of nucleotide biosynthesis: incorporation of hypoxanthine, adenine, formate into nucleotide pools of mammalian cells", "type": "cell-based", "settings": "1 μg/ml"}, "[2]": {"system": "Maden Darby Bovine Kidney (MDBK) cells", "assay": "3H-Hypoxanthine uptake (incorporation) into MDBK cells", "type": "cell-based", "settings": "1.0 μg/ml; for inhibition at 1 µg/mL: Bos taurus, MDBK", "method": "Compound A and analogs are capable of inhibiting nucleotide biosynthesis in a variety of mammalian cell types.\nConfluent cells were incubated in Eagles Minimal Essential media for 2.5 hours, then incubated with Phosphate buffered saline +Ca +Mg for 30 minutes, and then they were incubated with or without 1 μg/ml Compound A for 15 minutes. Media containing 100 μM 8-^3 H-hypoxanthine with or without drug was incubated for the time shown with the cells after which they were quenched by immersion in ice cold buffer. The DPM measurements were made on aliquots of neutralized perchloric acid supernatants."}, "P388 leukemia": {"system": "P388 leukemia", "assay": "Life prolongation assay, P388 leukemia in nude mice", "type": "in vivo", "settings": "for life prolongation: control survival 15 to 20 days", "method": "The topical antiproliferative activities, along with in vitro antiproliferative activities against human keratinocytes and fibroblasts, provide the biological data in support of the claimed utility:\nThe doses used were 240, 120 and 60 mg/kg delivered i.p. once per day for five days."}, "MDBK cells": {"system": "MDBK cells", "assay": "Inhibition of the growth of MDBK cells", "type": "cell-based, Bovine", "settings": "for inhibition at 1 µg/mL / inhibition at 2 µg/mL: Bos taurus, MDBK", "method": "The inhibition of PRPP biosynthesis by Compound A and analogs supported the claimed use of the compounds as antiproliferative agents, since this inhibition should prevent all de novo and salvage biosynthesis of purine and pyrimidine nucleotides. […] The data from NHEK's is particularly important since it is the overproliferation of these cells that occurs in psoriasis.\nIn these experiments Murine keratinocyte transformed cell line PAPp26 was cultured in Dulbecco's modified Eagle's medium with 10% fetal calf serum at 37° C., 5% CO2. Each well of a 96 well plate was seeded with 2000 cells in 200 μl of each drug dilution in duplicate. A plate was stopped and fixed for each time point, stained with Giemsa and then read in a Titertek plate reader at 650 nm, and the absorbances were calibrated with known cell numbers on control plates. NHEK's were obtained from Clonetics Corporation at the secondary stage. Antiproliferative assays were done as for the murine keratinocytes. Media (KGM) without serum was supplied by Clonetics also. Normal Human Fibroblasts and MDBK cells were grown under the same conditions except that MDBK cells were grown at 41° C."}, "rat PMN's": {"system": "rat PMN's", "assay": "Eicosanoid production in rat PMN's", "type": "cell-based", "settings": "1 μg/ml"}, "PRPP synthetase": {"system": "PRPP synthetase", "assay": "Direct inhibition of PRPP synthetase in vitro", "type": "biochemical", "settings": "in vitro studies"}, "[3]": {"system": "PMT-6 fibroscaroma tumors", "assay": "Antimetastatic activity against PMT-6 fibrosarcoma tumors in mice (metastases in lung, primary tumor weight)", "type": "in vivo, Black Charles River female mice (C57BL-6j)", "settings": "for range of primary tumor weights: control 3.1-8.4 g; for average weight of the primary tumors: mice surviving >17 days, control 6.0 g; for Number of Metastases, size 0.01-0.1 mm: control 24; for Number of Metastases, size <0.01 mm: control 102; for Number of Metastases, size >0.01 mm: size range >0.01 mm (so in the source)", "method": "Black Charles River female mice (C57BL-6j) were injected in the flank muscle on day 1 with a cell suspension obtained from mincing PMT-6 fibroscaroma tumors. This highly metastatic tumor produces a large number of metastases in the lung during development of the primary tumor, so that the efficacy of potential antimetastatic agents can be contrasted with their ability to inhibit primary tumor growth in the same model. The mice were in 4 groups of 6 and were dosed daily with a 0.5% methylcellulose suspension of 5-amino-1-(4-[4-chlorobenzoyl]-3,5-dichlorobenzyl)-1,2,3-triazole-4-carboxamide, the active agent, given by gavage. Fresh drug suspensions were prepared daily. The doses, in 250 μL, were 0, 100, 250, and 500 mg/kg.\nThe average weights of the primary tumors retrieved from mice who survived longer than 17 days were: Control 6.0 g. (3.1-8.4 g); 100 mg/kg, 2.9 g. (2.1-5.6 g.); 250 mg/kg, 3.0 g (1.3-4.6 g.); and 500 mg/kg, 3.3 g. (2.0-6.5 g.).\nThe lungs of the mice were sectioned at intervals throughout the entire lung after fixing in 10% formalin, and the sections stained with H&E. The metastases found ranged from micrometases of just a few cells to enormous ones that could be easily seen without a microscope."}, "LTA4 hydrolase": {"system": "LTA4 hydrolase", "assay": "Direct inhibition of LTA4 hydrolase", "type": "biochemical"}, "[4]": {"system": "keratinocyte proliferation", "assay": "Keratinocyte proliferation measured by metaphase arrest with colchicine", "type": "in vivo, pig"}}, "data": [{"smiles": "NC(=O)c1nnn(Cc2cc(Cl)c(C(=O)c3ccc(Cl)cc3)c(Cl)c2)c1N", "note": "[Compound A, 5-amino-1-(4-(4-chlorobenzoyl)-3,5-dichlorobenzyl)-1,2,3-triazole-4-carboxamide]", "values": [{"measurement": "inhibition of LTC4 production", "setting": "macrophages", "value": "inhibit"}, {"measurement": "inhibition of PGE2 production", "setting": "macrophages", "value": "inhibit"}, {"measurement": "inhibition of lysosomal enzyme release", "setting": "macrophages", "value": "inhibit"}, {"measurement": "adenine incorporation into nucleotide pools", "setting": "[1]; mammalian cells", "value": "disrupted"}, {"measurement": "formate incorporation into nucleotide pools", "setting": "[1]; mammalian cells", "value": "disrupted"}, {"measurement": "hypoxanthine incorporation into nucleotide pools", "setting": "[1]; mammalian cells", "value": "disrupted"}, {"measurement": "inhibition of nucleotide biosynthesis", "setting": "[1]; variety of mammalian cells in monolayer culture", "value": "efficacy"}, {"measurement": "3H-hypoxanthine incorporation into MDBK cells", "setting": "[2]; Eagles Minimal Essential media", "value": "substantially reduced"}, {"measurement": "3H-Hypoxanthine Uptake, DPM", "setting": "[2]; 10 min, control 87000", "value": 36000, "unit": "DPM"}, {"measurement": "3H-Hypoxanthine Uptake, DPM", "setting": "[2]; 20 min, control 140000", "value": 40000, "unit": "DPM"}, {"measurement": "3H-Hypoxanthine Uptake, DPM", "setting": "[2]; 30 min, control 190000", "value": 40000, "unit": "DPM"}, {"measurement": "inhibition at 1 µg/mL", "setting": "[2]; 10 min", "value": 59, "unit": "%"}, {"measurement": "inhibition at 1 µg/mL", "setting": "[2]; 20 min", "value": 71, "unit": "%"}, {"measurement": "inhibition at 1 µg/mL", "setting": "[2]; 30 min", "value": 79, "unit": "%"}, {"measurement": "life prolongation", "setting": "P388 leukemia; 60 mg/kg i.p. once per day for five days", "value": 127, "unit": "%"}, {"measurement": "life prolongation", "setting": "P388 leukemia; 120 mg/kg i.p. once per day for five days", "value": 124, "unit": "%"}, {"measurement": "life prolongation", "setting": "P388 leukemia; 240 mg/kg i.p. once per day for five days", "value": 134, "unit": "%"}, {"measurement": "in vivo activity against P388 leukemia", "setting": "P388 leukemia; 240, 120, 60 mg/kg i.p.", "value": "significant in vivo activity"}, {"measurement": "minimal effective dose", "setting": "P388 leukemia; Mus musculus, ip, P388 leukemia, nude mice, read-out: active dose in life prolongation assay", "value": "≥ 60", "unit": "mg/kg/day"}, {"measurement": "MDBK growth, # Cells × 10^6 - # Cells Seeded", "setting": "MDBK cells; 1.0 μg/ml, 1 day, control 1.40", "value": "0 × 10^6"}, {"measurement": "MDBK growth, # Cells × 10^6 - # Cells Seeded", "setting": "MDBK cells; 1.0 μg/ml, 3 days, control 4.86", "value": "3.12 × 10^6"}, {"measurement": "MDBK growth, # Cells × 10^6 - # Cells Seeded", "setting": "MDBK cells; 2.0 μg/ml, 1 day, control 1.40", "value": "0 × 10^6"}, {"measurement": "MDBK growth, # Cells × 10^6 - # Cells Seeded", "setting": "MDBK cells; 2.0 μg/ml, 3 days, control 4.86", "value": "0 × 10^6"}, {"measurement": "inhibition at 1 µg/mL", "setting": "MDBK cells; 24 h, 1.0 μg/ml, 1 day", "value": 100, "unit": "%"}, {"measurement": "inhibition at 2 µg/mL", "setting": "MDBK cells; 24 h, 2.0 μg/ml, 1 day", "value": 100, "unit": "%"}, {"measurement": "inhibition at 1 µg/mL", "setting": "MDBK cells; 72 h, 1.0 μg/ml, 3 days", "value": 36, "unit": "%"}, {"measurement": "inhibition at 2 µg/mL", "setting": "MDBK cells; 72 h, 2.0 μg/ml, 3 days", "value": 100, "unit": "%"}, {"measurement": "inhibition of growth of MDBK cells", "setting": "MDBK cells; approximately 1.0 μg/ml", "value": "substantial inhibition"}, {"measurement": "inhibition of 5-HETE production", "setting": "rat PMN's", "value": "inhibit"}, {"measurement": "inhibition of HHT production", "setting": "rat PMN's", "value": "inhibit"}, {"measurement": "inhibition of LTB4 production", "setting": "rat PMN's", "value": "inhibit"}, {"measurement": "direct inhibition of PRPP synthetase", "setting": "PRPP synthetase", "value": "no direct inhibition of the enzyme occurred"}, {"measurement": "genotoxicity", "setting": "Toxicity / genotoxicity", "value": "lack of toxicity or genotoxicity"}, {"measurement": "toxicity", "setting": "Toxicity / genotoxicity", "value": "lack of toxicity or genotoxicity"}, {"measurement": "range of primary tumor weights", "setting": "[3]; 100 mg/kg by gavage daily", "value": "2.1 to 5.6", "unit": "g"}, {"measurement": "average weight of the primary tumors", "setting": "[3]; 100 mg/kg by gavage daily", "value": 2.9, "unit": "g"}, {"measurement": "range of primary tumor weights", "setting": "[3]; 250 mg/kg by gavage daily", "value": "1.3 to 4.6", "unit": "g"}, {"measurement": "average weight of the primary tumors", "setting": "[3]; 250 mg/kg by gavage daily", "value": 3.0, "unit": "g"}, {"measurement": "range of primary tumor weights", "setting": "[3]; 500 mg/kg by gavage daily", "value": "2.0 to 6.5", "unit": "g"}, {"measurement": "average weight of the primary tumors", "setting": "[3]; 500 mg/kg by gavage daily", "value": 3.3, "unit": "g"}, {"measurement": "effect on the primary tumor", "setting": "[3]; 100, 250, 500 mg/kg by gavage", "value": "there may be a small effect of the drug on the primary tumor"}, {"measurement": "effect on number of lung metastases", "setting": "[3]; at even the lowest dose (100 mg/kg/d oral)", "value": "a large drop in the number of metastases at even the lowest dose"}, {"measurement": "antimetastatic activity", "setting": "[3]; mouse, in vivo", "value": "has exhibited such antimetastatic activity"}, {"measurement": "Number of Metastases, size 0.01-0.1 mm", "setting": "[3]; oral 100 mg/kg/d", "value": 0}, {"measurement": "Number of Metastases, size <0.01 mm", "setting": "[3]; oral 100 mg/kg/d", "value": 6}, {"measurement": "Number of Metastases, size >0.01 mm", "setting": "[3]; oral 100 mg/kg/d", "value": 0}, {"measurement": "Number of Metastases, size 0.01-0.1 mm", "setting": "[3]; oral 250 mg/kg/d", "value": 3}, {"measurement": "Number of Metastases, size <0.01 mm", "setting": "[3]; oral 250 mg/kg/d", "value": 9}, {"measurement": "Number of Metastases, size >0.01 mm", "setting": "[3]; oral 250 mg/kg/d", "value": 0}, {"measurement": "Number of Metastases, size 0.01-0.1 mm", "setting": "[3]; oral 500 mg/kg/d", "value": 3}, {"measurement": "Number of Metastases, size <0.01 mm", "setting": "[3]; oral 500 mg/kg/d", "value": 6}, {"measurement": "Number of Metastases, size >0.01 mm", "setting": "[3]; oral 500 mg/kg/d", "value": 1}, {"measurement": "direct inhibition of LTA4 hydrolase", "setting": "LTA4 hydrolase", "value": "no evidence of direct inhibition"}, {"measurement": "inhibition of keratinocyte proliferation", "setting": "[4]", "value": "inhibits"}]}]}
